Several values for one entry are separate records, joined by “and”; a condition that tells them apart may be missing. Equal values may be shown once.
Key:
[1] = system: activated Akt; assay: Western immunoblot for activated (phospho-Ser473) Akt in muscle cells; assay type: cell-based, mouse; details: for FOLD AKT ACTIVATION (OVER CONTROL): cells treated 30 minutes at 37° C; for effect on Akt activity (in words): no concentration stated
Procedure: (§1) The levels of Glut-4, activated AMPK and activated Akt were measured in mouse muscle cells C2C12 (from ATTC) and in primary culture of human skeletal muscle cells (Clonetics, Inc.) using Western immunoblotting. C2C12 cells were plated at 1.5×1-exp5 cells per mL/well (12-well plate) in standard cell culture medium (DMEM supplemented with 10% fetal bovine serum (FBS), 25 mM glucose, 20 mM Hepes, 4 mM glutamine and 2 mM sodium pyruvate. 48 hrs after the plating, medium was changed to differentiation medium (DMEM supplemented with 5 mM of glucose and 0.5% of FBS) for next 3-4 days to stimulate the formation of myotubes. Three hours before the treatment with selected agents, cells were washed with PBS and transferred to PBS supplemented with 5 mM of glucose.
(§2) Human skeletal muscle cells (HSKM) were cultured in SKBM-2 mediums provided by Clonetics. 48 hrs after cell plating, medium was changed to SKBM medium to stimulate differentiation of the cells to myotubes. When differentiated, the myotubes were transferred to PBS supplemented with 5 mM glucose for three hrs before the treatment.
(§3) Analysis of C2C12 cells for the level of activated AMPK, Akt and the level of GLUT-4 was performed in the same experimental system. The cells were treated for 30 minutes at 37° C. […] Subsequently, 20 μg per sample of sample protein was used for Western analysis using NuPage 10% Bis/Tris gels (Invitrogen). After exposure of membranes to primary and secondary antibodies AMPK, AKT or Glut-4 was detected using ECL-Plus (Amersham) following producer's instruction. Chemilumiscent signals were detected by using ChemiDoc system from Biorad. Intensity of detected signals were analyzed and measured using Quantity One software (Biorad). Alternatively, the level of phosphorylated AMPK was detected using ECL kit from Amersham and short exposure to Kodak films.
(§4) Experimental setup: Cell Culture was followed by treatment with selected contemplated compounds, which was followed by cell lysis and western blot analysis for AMPK, Akt, GLUT4, total AMPK, and total Akt. Signals were acquired accordingly.

[2] = system: activated AMPK; assay: Western immunoblot for activated (phospho-Thr172) AMPK in muscle cells; assay type: cell-based, mouse; details: for FOLD AMPK ACTIVATION (OVER CONTROL): cells treated 30 minutes at 37° C; for effect on AMPK activity (in words): no concentration stated
Procedure: as §1, §2, §3, §4

[3] = system: GLUT-4; assay: Western immunoblot for GLUT-4 protein level in C2C12 cells; assay type: cell-based, mouse
Procedure: as §1
Analysis of C2C12 cells for the level of activated AMPK, Akt and the level of GLUT-4 was performed in the same experimental system. The cells were treated for 30 minutes at 37° C. After the treatment, the cells were washed with ice-cold PBS and lysed with 80 μl of lysis buffer/well (M-PER buffer from Pierce supplemented with protease and phosphatase inhibitor mix (Calbiochem) for 10 minutes on ice. Next, the plates were transferred to −20° C. to improve the lysis of the cells. Next cells were sonicated for 5 minutes and lysate was transferred to Eppendorf tubes and centrifuged at 14,000 rpm for 10 minutes. Supernatants were collected in fresh Eppendorf tubes and kept on ice to measure the amount of total proteins. 3 μl of each lysate was used to measure the protein concentration using standard Bradford method (Biorad). Subsequently, 20 μg per sample of sample protein was used for Western analysis using NuPage 10% Bis/Tris gels (Invitrogen). After exposure of membranes to primary and secondary antibodies AMPK, AKT or Glut-4 was detected using ECL-Plus (Amersham) following producer's instruction. Chemilumiscent signals were detected by using ChemiDoc system from Biorad. Intensity of detected signals were analyzed and measured using Quantity One software (Biorad). Alternatively, the level of phosphorylated AMPK was detected using ECL kit from Amersham and short exposure to Kodak films.
Experimental setup: Cell Culture was followed by treatment with selected contemplated compounds, which was followed by cell lysis and western blot analysis for AMPK, Akt, GLUT4, total AMPK, and total Akt. Signals were acquired accordingly. Primary antibodies used in these studies are the following: Anti-phospho-AMPK (Thr172), mouse, rabbit IgG, from Cell Signaling, #2531; Anti-phospho-Akt (Ser473), mouse, rabbit IgG, Cell Signaling, #9271; Anti-Glut-4, mouse, rabbit IgG, Calbiochem, #400064; Anti-AMPK (total), mouse, rabbit IgG, Cell Signaling, #2532; Anti-Akt (total), mouse, rabbit IgG, Cell Signaling, #9272.
The effects of kinetin, N^2-Acetyl-Guanosine and N^2-Acetyl-Guanine on GLUT-4 protein level in C2C12 cells were investigated following the same experimental design as described for AMPK and AKT. Anti-Glut-4 antibody used in this study was from Calbiochem. […] Table 3 refers to multiple independent experiments where multiple identical concentrations for the same reagents are indicated.

[4] = system: muscle cells; assay: Total glucose uptake in vitro with fluorescent glucose analog; assay type: cell-based; details: for AVERAGE (N = 3) fluorescence of fluorescent glucose in the cells / FOLD CHANGE IN TOTAL GLUCOSE UPTAKE (OVER CONTROL): 30 minutes at 37 C
Procedure: Total glucose uptake was measured using fluorescent glucose analog from Molecular Probes. Briefly, muscle cells were treated with kinetin, N^2-Acetyl-Guanosine and N^2-Acetyl-Guanine for 30 minutes at 37 C first and subsequently, these cells were exposed to 500 μM of fluorescent glucose analog for 5 minutes at room temperature. Next, cells were washed twice with cold Krebs-Hepes buffered solution and fixed in 70% ethanol in water. Fluorescence of fluorescent glucose in the cells was measured using fluorescent plate reader at 480/530 nm (excitation/emission). […] Table 4 refers to multiple independent experiments where multiple identical concentrations for the same reagents are indicated.

[5] = concentration 0.15 (unit not given)
[6] = concentration 0.3 (unit not given)
[7] = concentration 0.75 (unit not given)
[8] = concentration 1.5 (unit not given)
[9] = concentration 3.75 (unit not given)
[10] = concentration 7.5 (unit not given)

Compound: CC(=O)Nc1nc2c(ncn2[C@@H]2O[C@H](CO)[C@@H](O)[C@H]2O)c(=O)[nH]1 [N^2-Acetyl-Guanosine]
- FOLD AKT ACTIVATION (OVER CONTROL) ([1]; 0.1 microM): 2.57 fold
- FOLD AKT ACTIVATION (OVER CONTROL) ([1]; 0.3 microM): 1.92 fold and 2.57 fold
- FOLD AKT ACTIVATION (OVER CONTROL) ([1]; 0.8 microM): 1.75 fold and 2.95 fold
- FOLD AKT ACTIVATION (OVER CONTROL) ([1]; 1.5 microM): 1.55 fold
- FOLD AKT ACTIVATION (OVER CONTROL) ([1]; 2.0 microM): 2.17 fold
- FOLD AKT ACTIVATION (OVER CONTROL) ([1]; 5.0 microM): 1.23 fold
- FOLD AKT ACTIVATION (OVER CONTROL) ([1]; 7.5 microM): 1.68 fold
- effect on Akt activity (in words) [1]: potent activators of AMPK as well as Akt
- FOLD AMPK ACTIVATION (OVER CONTROL) ([2]; 0.3 microM): 3.75 fold
- FOLD AMPK ACTIVATION (OVER CONTROL) ([2]; 0.8 microM): 2.20 fold
- FOLD AMPK ACTIVATION (OVER CONTROL) ([2]; 1.5 microM): 4.28 fold
- FOLD AMPK ACTIVATION (OVER CONTROL) ([2]; 2.0 microM): 2.20 fold
- FOLD AMPK ACTIVATION (OVER CONTROL) ([2]; 7.5 microM): 1.71 fold
- FOLD AMPK ACTIVATION (OVER CONTROL) ([2]; 37.5 microM): 2.28 fold
- effect on AMPK activity (in words) [2]: potent activators of AMPK
- effect on GLUT-4 protein level (in words) [3]: potently increase GLUT-4 protein level
- FOLD CHANGE IN GLUT-4 LEVEL (OVER CONTROL) ([3]; 0.3 microM): 1.21 fold
- FOLD CHANGE IN GLUT-4 LEVEL (OVER CONTROL) ([3]; 1.5 microM): 1.74 fold
- FOLD CHANGE IN GLUT-4 LEVEL (OVER CONTROL) ([3]; 7.5 microM): 3.14 fold
- FOLD CHANGE IN GLUT-4 LEVEL (OVER CONTROL) ([3]; 37.5 microM): 3.03 fold
- effect on glucose uptake in muscle cells in vitro (in words) [4]: potently enhance glucose uptake in muscle cells in vitro
- AVERAGE (N = 3) fluorescence of fluorescent glucose in the cells [4, 5]: 90.5 +/− 1.7
- FOLD CHANGE IN TOTAL GLUCOSE UPTAKE (OVER CONTROL) [4, 5]: 1.94 fold
- AVERAGE (N = 3) fluorescence of fluorescent glucose in the cells [4, 6]: 44.1 +/− 0.7
- FOLD CHANGE IN TOTAL GLUCOSE UPTAKE (OVER CONTROL) [4, 6]: 2.17 fold
- AVERAGE (N = 3) fluorescence of fluorescent glucose in the cells [4, 7]: 109.5 +/− 2.6
- FOLD CHANGE IN TOTAL GLUCOSE UPTAKE (OVER CONTROL) [4, 7]: 2.35 fold
- AVERAGE (N = 3) fluorescence of fluorescent glucose in the cells [4, 8]: 54.3 +/− 0.9
- FOLD CHANGE IN TOTAL GLUCOSE UPTAKE (OVER CONTROL) [4, 8]: 2.67 fold
- AVERAGE (N = 3) fluorescence of fluorescent glucose in the cells [4, 9]: 148.7 +/− 8.5
- FOLD CHANGE IN TOTAL GLUCOSE UPTAKE (OVER CONTROL) [4, 9]: 3.18 fold
- AVERAGE (N = 3) fluorescence of fluorescent glucose in the cells [4, 10]: 61.7 +/− 1.3
- FOLD CHANGE IN TOTAL GLUCOSE UPTAKE (OVER CONTROL) [4, 10]: 3.03 fold

Compound: CC(=O)Nc1ccn([C@@H]2O[C@H](CO)[C@@H](O)[C@H]2O)c(=O)n1 [N^4-Acetyl-Cytidine]
- FOLD AKT ACTIVATION (OVER CONTROL) ([1]; 0.8 microM): 2.45 fold
- FOLD AKT ACTIVATION (OVER CONTROL) ([1]; 2.0 microM): 1.46 fold and 1.50 fold
- FOLD AKT ACTIVATION (OVER CONTROL) ([1]; 5.0 microM): 1.64 fold and 1.36 fold

Compound: CC(=O)Nc1ncnc2c1ncn2[C@@H]1O[C@H](CO)[C@@H](O)[C@H]1O [N^6-Acetyl-Adenosine]
- FOLD AMPK ACTIVATION (OVER CONTROL) ([2]; 2.5 microM): 1.08 fold
- FOLD AMPK ACTIVATION (OVER CONTROL) ([2]; 5.0 microM): 2.41 fold
- FOLD AMPK ACTIVATION (OVER CONTROL) ([2]; 12.5 microM): 2.18 fold

Compound: CN(CCOc1ccc(CC2SC(=O)NC2=O)cc1)c1ccccn1 (stereo not shown) [Rosiglitazone, reference compound]
- FOLD AKT ACTIVATION (OVER CONTROL) ([1]; 1.0 microM): 2.83 fold
- FOLD AKT ACTIVATION (OVER CONTROL) ([1]; 9.0 microM): 1.78 fold
- FOLD AKT ACTIVATION (OVER CONTROL) ([1]; 27.0 microM): 0.71 fold
- FOLD AMPK ACTIVATION (OVER CONTROL) ([2]; 3.0 microM): 3.50 fold
- FOLD CHANGE IN GLUT-4 LEVEL (OVER CONTROL) ([3]; 9.0 microM): 3.61 fold
- FOLD CHANGE IN GLUT-4 LEVEL (OVER CONTROL) ([3]; 27.0 microM): 3.19 fold

Compound: C/C(=C\CNc1ncnc2nc[nH]c12)CO [Trans-Zeatin]
- FOLD AKT ACTIVATION (OVER CONTROL) ([1]; 1.0 microM): 0.90 fold
- FOLD AKT ACTIVATION (OVER CONTROL) ([1]; 10.0 microM): 0.86 fold
- FOLD AMPK ACTIVATION (OVER CONTROL) ([2]; 1.0 microM): 2.33 fold
- FOLD AMPK ACTIVATION (OVER CONTROL) ([2]; 10.0 microM): 4.27 fold

Compound: C/C(=C\CNc1ncnc2[nH]cnc12)CO [Zeatin]
- FOLD AKT ACTIVATION (OVER CONTROL) ([1]; 1.0 microM): 0.95 fold
- FOLD AKT ACTIVATION (OVER CONTROL) ([1]; 10.0 microM): 1.36 fold
- effect on Akt activity (in words) [1]: not Akt
- FOLD AMPK ACTIVATION (OVER CONTROL) ([2]; 1.0 microM): 2.33 fold and 2.15 fold
- FOLD AMPK ACTIVATION (OVER CONTROL) ([2]; 10.0 microM): 2.04 fold
- effect on AMPK activity (in words) [2]: potent stimulator of AMPK

Compound: Insulin
- FOLD AKT ACTIVATION (OVER CONTROL) ([1]; 0.10 nanoM): 1.75 fold
- FOLD AKT ACTIVATION (OVER CONTROL) ([1]; 25.0 nanoM): 3.40 fold
- FOLD AKT ACTIVATION (OVER CONTROL) ([1]; 50.0 nanoM): 3.28 fold

From patent publication US20090208620A1, “Alimentary Compositions and Methods For Metabolic Modulation” (VDF FUTURECEUTICALS, INC., priority 2003, published 2009)
